From patent publication US12220411B1, “Application of PTGDS inhibitor in preparation of drug for treating cataracts” (THE EYE HOSPITAL OR WENZHOU MEDICAL UNIVERSITY, priority 2023, dated 2025) come the findings set out here.

Experiment [1] concerns lens epithelial cells. In words: ROS fluorescence staining in H2O2 epithelial cell oxidation model. The experiment is classed as cell-based, human. The settings on record: 200 μM H2O2 and 10 µM AT-56 (FIG. 9).
Experiment [2] concerns lens epithelial cells. Kind of experiment: Apoptosis of lens epithelial cells cultured with H2O2. It counts as cell-based, human. The note with it: 10 μM AT-56 added to 200 μM H2O2 (FIG. 11). The source says:
If the lens epithelial cells suffer from the oxidative stress injury, excessive ROS may accumulate in the cells, which can cause apoptosis until generation of cataracts.

In experiment [3] the test system is HLEC-B3 cell line. Kind of experiment: CCK8 cell activity with AT-56 added. It counts as cell-based, human. The procedure:
AT-56 was added to the cell line.

Experiment [4] has as its system lens epithelial cells. In words: MDA content measurement (oxidative stress injury). It counts as cell-based, human. The procedure:
MDA is an important index of oxidative stress, and measurement on the content of the MDA reflects a degree of an oxidative stress injury. After addition of different concentrations of PTGDS (FIG. 10A) and PGD2 (FIG. 10B), values of MDA were measured.

Experiment [5] concerns rat lens. Kind of experiment: In vitro oxidative opacity model for a rat lens (lens organ culture).
Experiment [6] has as its system lens epithelial cells. Kind of experiment: ROS fluorescence staining after addition of PTGDS or PGD2. The experiment is classed as cell-based, human.

Turning to `C1=Cc2ccccc2C(=C2CCN(CCCCc3nn[nH]n3)CC2)c2ccccc21` [AT-56, 4-dibenzo[a,d]cyclohepten-5-ylidene-1-[4-(2H-tetrazol-5-yl)-butyl]-piperidine], in experiment [1], the “ROS production in H2O2 epithelial cell oxidation model” value is “inhibit lens epithelial cells from producing ROS”. In addition, the “apoptosis of lens epithelial cells” value in experiment [2] is recorded as “effectively reduce apoptosis”. For the same molecule, the “cell activity (CCK8)” value is “higher than that with the addition of DMSO” in experiment [3] (7 μM AT-56, versus DMSO) and “higher than that with the addition of DMSO” in experiment [3] (10 μM AT-56, versus DMSO). Also, the “production of the MDA” value in experiment [4] (AT-56 added to 200 μM H2O2 (FIG. 10C)) is listed as “effectively reduce production of the MDA”. Also, the “progression of the cataracts (lens opacity)” value in experiment [5] (200 μM H2O2 + 7 or 10 μM AT-56 for 12 h (FIGS. 12A-D)) was “alleviated progression of the cataracts”. Further, in experiment [5] (200 μM H2O2 for 12 h, then 7 or 10 μM AT-56 for 24 h (FIGS. 12E-G)), the “degree of the cataracts (lens opacity)” value was “effectively reduce the degree of the cataracts”.

Regarding `CCCCC[C@H](O)/C=C/[C@H]1C(=O)C[C@H](O)[C@@H]1C/C=C\CCCC(=O)O` [PGD2, prostaglandin D2], the “levels of ROS produced by the lens epithelial cells” value in experiment [6] (PGD2 0.1, 0.4, 0.7, 1.0 nM versus DMSO (FIG. 8)) is “increased, and were concentration-dependent”. Moreover, the “content of MDA” value in experiment [4] (different concentrations of PGD2 (FIG. 10B)) is given as “increased with the increase of the concentration”.

B1: PTGDS: prostaglandin H2 (PGH2) D-isomerase protein added to lens epithelial cells at 100-1000 pg/mL (protein, UniProt P41222 23-190, looked up)
Prostaglandin-H2 D-isomerase: APEAQVSVQPNFQQDKFLGRWFSAGLASNSSWLREKKAALSMCKSVVAPATDGGLNLTSTFLRKNQCETRTMLLQPAGSLGSYSYRSPHWGSTYSVSVVETDYDQYALLYSQGSKGPGEDFRMATLYSRTQTPRAELKEKFTAFCKAQGFTEDTIVFLPQTDKCMTEQ
As to B1, the “levels of ROS produced by the lens epithelial cells” value in experiment [6] (PTGDS 100, 400, 700, 1000 pg/mL versus DMSO control (FIG. 7)) was “increased, and were concentration-dependent”. In experiment [4] (different concentrations of PTGDS (FIG. 10A)), the “content of MDA” value is listed as “increased with the increase of the concentration”.
